target: T1, human S1P1 receptor (Homo sapiens, UniProt P21453); test: GTP γ35S binding assay for S1P1 activity; format: biochemical; conditions: membranes of cells stably expressing the S1P1 receptor
T1 construct: expressed in transfected cells; membranes used
Protocol: Compounds were synthesized and tested for S1P1 activity using the GTP γ^35S binding assay. These compounds may be assessed for their ability to activate or block activation of the human S1P1 receptor in cells stably expressing the S1P1 receptor.
GTP γ^35S binding was measured in the medium containing (mM) HEPES 25, pH 7.4, MgCl2 10, NaCl 100, dithiothreitol 0.5, digitonin 0.003%, 0.2 nM GTP γ^35S, and 5 μg membrane protein in a volume of 150 μl. Test compounds were included in the concentration range from 0.08 to 5,000 nM unless indicated otherwise. Membranes were incubated with 100 μM 5′-adenylylimidodiphosphate for 30 min, and subsequently with 10 μM GDP for 10 min on ice. Drug solutions and membrane were mixed, and then reactions were initiated by adding GTP γ^35S and continued for 30 min at 25° C. Reaction mixtures were filtered over Whatman GF/B filters under vacuum, and washed three times with 3 mL of ice-cold buffer (HEPES 25, pH7.4, MgCl2 10 and NaCl 100). Filters were dried and mixed with scintillant, and counted for ^35S activity using a β-counter. Agonist-induced GTP γ^35S binding was obtained by subtracting that in the absence of agonist. Binding data were analyzed using a non-linear regression method. In case of antagonist assay, the reaction mixture contained 10 nM […] in the presence of test antagonist at concentrations ranging from 0.08 to 5000 nM.

T1 sequence (P21453 whole entry): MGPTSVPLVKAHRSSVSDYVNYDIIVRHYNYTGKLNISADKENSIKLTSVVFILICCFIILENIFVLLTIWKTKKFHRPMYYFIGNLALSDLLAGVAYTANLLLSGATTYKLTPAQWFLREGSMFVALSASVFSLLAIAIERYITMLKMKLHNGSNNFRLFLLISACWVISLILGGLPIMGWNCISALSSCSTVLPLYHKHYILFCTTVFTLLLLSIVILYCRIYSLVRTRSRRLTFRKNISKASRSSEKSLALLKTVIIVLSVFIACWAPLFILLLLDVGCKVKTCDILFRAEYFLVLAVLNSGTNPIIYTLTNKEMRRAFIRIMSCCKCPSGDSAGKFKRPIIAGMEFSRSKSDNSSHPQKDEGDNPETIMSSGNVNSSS

| Compound | EC50 |
| --- | --- |
| Cc1ccc(CC(CCCCc2ccc(CN3CC(C(=O)O)C3)cc2)c2cc(F)cc(F)c2)cc1C (stereo not drawn) [Compound 3, 1-{4-[5-(3,5-Difluorophenyl)-6-(3,4-dimethylphenyl)hexyl]benzyl}azetidine-3-carboxylic acid] | 7.33 nM |
| Cc1ccc(CC(CCCc2ccc(CN3CC(C(=O)O)C3)cc2)c2cccc(Cl)c2)cc1C (stereo not drawn) [Compound 2, 1-{4-[4-(3-Chlorophenyl)-5-(3,4-dimethylphenyl)pentyl]benzyl}azetidine-3-carboxylic acid] | 17.1 nM |
| Cc1ccc(CC(CCCCc2ccc(CN3CC(C(=O)O)C3)cc2)c2cccc(Cl)c2)cc1C (stereo not drawn) [Compound 1, 1-{4-[5-(3-Chlorophenyl)-6-(3,4-dimethylphenyl)hexyl]benzyl}azetidine-3-carboxylic acid] | 64.5 nM |

Reference: patent US20150057261A1, “AZETIDINE DERIVATIVES AS SPHINGOSINE-1 PHOSPHATE RECEPTORS MODULATORS” (Allergan, Inc., priority 2013, published 2015)
